Data as given in patent US20260167629A1, “NOVEL INDAZOLE DERIVATIVE OR PHARMACEUTICALLY ACCEPTABLE SALT THEREOF, AND USE THEREOF” (KOREA UNIVERSITY RESEARCH AND BUSINESS FOUNDATION, priority 2022, published 2026).

Key:
MDA-MB-231 cell line [1] = test: MTS cell viability assay in MDA-MB-231 cell line; type: cell-based; details: Homo sapiens, MDA-MB-231, 72 hours
Experimental: A HER2 positive breast cancer (HER2+BC) cell line, JIMT-1 (cell seeding numbers: 1.0 (JIMT)×10^4 cells/wells (confluency≤30%)) and a triple-negative breast cancer (TNBC) cell line, MDA-MB-231 (cell seeding numbers: 1.0 (M231)×10^4 cells/wells (confluency≤30%) were used in the experiment.
The above cell lines were cultured in Dulbecco's Modified Eagle's Medium (DMEM) or Eagle's minimum Essential Medium (MEM) each containing 10% fetal bovine serum (FBS), streptomycin-penicillin (100 U/ml), and Fungizone (0.625 μg/ml), respectively under 5% CO2, 37° C. environment.
The JIMT-1 cell line and MDA-MB-231 cell line were treated with the indazole derivatives (formulas 1-1 to 1-53) of the present disclosure at a concentration of 10 μM each for 72 hours, and then cell viability was measured using the MTS assay technique. The control group was treated with DMSO as an untreated group (0 μM) of the indazole derivative of the present disclosure.
(§1) Specifically, cells were attached to 96 well plates for 24 hours, and then treated with the indazole derivatives for 72 hours. Thereafter, the cells were chromogenized with MTS for 4 hours, and the absorbance was measured at 490 nm using a Spectramax Plus384 microplate analyzer. The significance between the control group and the experimental group was verified using an unpaired Students t-test (*p<0.01; DMSO control vs indazole series).
HER2-positive breast cancer cell lines, BT474 (cell seeding numbers: 2.0 (JIMT)×10^4 cells/wells (confluency≤30%)) sensitive to trastuzumab, and JIMT-1 (cell seeding numbers: 1.0 (JIMT)×10^4 cells/wells (confluency≤30%)) resistant to trastuzumab, and a triple-negative breast cancer cell line, MDA-MB-231 (cell seeding numbers: 1.0 (M231)×10^4 cells/wells (confluency≤30%)) were used.
The BT474, JIMT-1, and MDA-MB-231 cell lines were treated with compound 18c (formula 1-16) and compound 11k (formula 1-7) at concentrations of 0 (DMSO), 0.1, 0.5, 1, 5, 10, and 20 μM, respectively, for 72 hours, and then cell viability was measured using the MTS assay technique as explained by the description of Experimental Example 1. The cell viability experiment was performed independently three times, and the significance was verified by a One-Way Anova, Bonferroni post-hoc test (*p<0.01; DMSO control vs. compound 18c or compound 11k).
In addition, the JIMT-1 and MDA-MB-231 cell lines were treated with compound 11m (formula 1-9), 11n (formula 1-10) and compound 12k (formula 1-13) at concentrations of 0 (DMSO), 0.1, 1, 5, 10, and 20 μM, respectively, for 72 hours, and then cell viability was measured.
(§2) Meanwhile, triple-negative breast cancer cell lines MDA-MB-231 and BT549, and a mouse breast cancer cell line 4T1 were treated with compound 38 (formula 1-30) at concentrations of 0 (DMSO), 0.1, 0.5, 1, 2, 5, 10, and 20 μM for 72 hours, and then cell viability was measured.
The indazole derivative of the present disclosure was compared with the benzopyran derivative of the related art (KR 10-2304532) in terms of cell viability of the BT474, JIMT-1, and MDA-MB-231 cell lines (Table 1). In this case, the cell lines were treated with the benzopyran derivative at a concentration of 10 μM for 72 hours and the cell lines were treated with the indazole derivative at a concentration of 10 μM for 72 hours, and then the cell viability was measured.

JIMT-1 cell line = test: MTS cell viability assay in JIMT-1 cell line; type: cell-based; details: Homo sapiens, JIMT-1, 72 hours
Experimental: The control group was treated with DMSO as an untreated group (0 μM) of the indazole derivative of the present disclosure.
Specifically, cells were attached to 96 well plates for 24 hours, and then treated with the indazole derivatives for 72 hours. Thereafter, the cells were chromogenized with MTS for 4 hours, and the absorbance was measured at 490 nm using a Spectramax Plus384 microplate analyzer.
HER2 positive breast cancer (HER2+BC) cell lines, BT474 (cell seeding numbers: 2.4 (BT474)×10^4 cells/wells (confluency≥50%)) sensitive to trastuzumab and JIMT-1 (cell seeding numbers: 1.0 (JIMT-1)×10^4 cells/wells (confluency>30%)) resistant to trastuzumab were used in the experiment.
In this case, the cell lines were treated with the benzopyran derivative at a concentration of 10 μM for 72 hours and the cell lines were treated with the indazole derivative at a concentration of 10 μM for 72 hours, and then the cell viability was measured.

BT549 cell line [2] = test: MTS cell viability assay in BT549 cell line; type: cell-based; details: Homo sapiens, BT-549; BT549, 72 hours
Experimental: as §1, §2

MDA-MB-231 cell line [3] = test: Annexin V/PI staining, type of cell death, MDA-MB-231; type: cell-based; details: MDA-MB-231, Annexin V/PI staining
Experimental: (§3) Meanwhile, triple-negative breast cancer cell lines, MDA-MB-231 and BT549 were treated with compound 38 (formula 1-30), and then the type of cell death was determined by Annexin V/PI staining.

BT549 cell line [4] = test: Annexin V/PI staining, type of cell death, BT549; type: cell-based
Experimental: as §3

MDA-MB-231 cell line [5] = test: Cell morphology by phase contrast microscopy, MDA-MB-231; type: cell-based; details: MDA-MB-231, 5 and 10 μM, 72 hours
Experimental: (§4) MDA-MB-231 and BT549 cell lines were treated with compound 38 (formula 1-30) at concentrations of 0 (DMSO), 5, and 10 μM for 72 hours. Then, the drug-induced cytotoxicity was assessed by observing changes in cell morphology using phase contrast microscopy. The photographs were taken at a magnification of ×200 using phase contrast microscopy.

BT549 cell line [6] = test: Cell morphology by phase contrast microscopy, BT549; type: cell-based; details: BT549, 5 and 10 μM, 72 hours
Experimental: as §4

[7] = tested on: mouse breast cancer cell line 4T1; test: MTS cell viability assay in 4T1 cell line; type: cell-based; details: 4T1, 72 hours
Experimental: as §1, §2

[8] = Toxicity in JIMT-1 xenograft mice, combination with paclitaxel (body weight, AST, ALT, BUN); type: in vivo, Balb/c nude mice; details: combination study
[9] = tested on: JIMT-1 breast cancer cell line xenograft; test: Tumor growth in JIMT-1 xenograft mouse model, combination with paclitaxel; type: in vivo, Balb/c nude mice
Experimental: This experiment was performed in an in vivo environment using a xenograft mouse model transplanted with the JIMT-1 breast cancer cell line.
6-week-old mice (Balb/c nude mice) were purchased and raised in an environment where they could freely access food and water. The mice were acclimated for more than 7 days, and then were transplanted with tumor cells. Tumor cells were injected subcutaneously into the mammary gland tissue of JIMT-1 breast cancer cells at a density of 3×10^6 cells/mL per individual, and when the tumor reached a size of 50 to 100 mm^3, the indazole derivative of the present disclosure was administered intraperitoneally, and the tumor growth was measured.

What does the source list for COc1c(C(=O)Nc2ccc3c(C)nn(CCCN4CCN(C)CC4)c3c2)ccc2c1C=CC(C)(C)O2 [compound 11n, 5-methoxy-2,2-dimethyl-N-(3-methyl-1-(3-(4-methylpiperazin-1-yl)propyl)-1H-indazol-6-yl)-2H-chromene-6-carboxamide]?
IC50 (MDA-MB-231 cell line [1]): 3.65 µM; IC50 (JIMT-1 cell line): 3.28 µM

Which IC50 (MDA-MB-231 cell line [1]) does the source give for COc1c(C(=O)Nc2ccc3cnn(CCC4CCN(C)CC4)c3c2)ccc2c1C=CC(C)(C)O2 [compound 12k, 5-methoxy-2,2-dimethyl-N-(1-(2-(1-methylpiperidin-4-yl)ethyl)-1H-indazol-6-yl)-2H-chromene-6-carboxamide] here?
The IC50 was 2.05 µM.

And the IC50 (JIMT-1 cell line)?
The IC50 was 5.56 µM.

For Cc1nn(CCC2CCN(C)CC2)c2cc(NC(=O)c3ccc4c(c3Cl)C=CC(C)(C)O4)ccc12 [compound 38, 5-chloro-2,2-dimethyl-N-(3-methyl-1-(2-(1-methylpiperidin-4-yl)ethyl)-1H-indazol-6-yl)-2H-chromene-6-carboxamide], which IC50 (BT549 cell line [2]) is on record?
Its IC50 is 4.84 µM.

What about the “type of cell death (apoptosis)” value (MDA-MB-231 cell line [3]) of the same compound?
Its value is “early and late apoptosis of cancer cells was induced”.

What about the “type of cell death (apoptosis)” value (BT549 cell line [4]) of the same compound?
The value was “early and late apoptosis of cancer cells was induced”.

And the “changes in cell morphology (cytotoxicity)” value (MDA-MB-231 cell line [5])?
Its value is “morphological changes in which the cytoplasm shrank”.

And the “changes in cell morphology (cytotoxicity)” value (BT549 cell line [6])?
Its value is “morphological changes in which the cytoplasm shrank”.

What about the IC50 [7] of the same compound?
The IC50 was 1.21 µM.

And the IC50 (MDA-MB-231 cell line [1])?
Its IC50 is 3.67 µM.

With CC(=O)O[C@H]1C(=O)[C@@]2(C)[C@H]([C@H](OC(=O)c3ccccc3)[C@]3(O)C[C@H](OC(=O)[C@H](O)[C@@H](NC(=O)c4ccccc4)c4ccccc4)C(C)=C1C3(C)C)[C@]1(OC(C)=O)CO[C@@H]1C[C@@H]2O [paclitaxel, reference compound] as the compound, how does the “AST and ALT levels, BUN assay” value ([8]; blood of the mouse model) read?
Its value is “levels similar to those of the control group”.

And the body weight [8]?
Its body weight is “remained unchanged”.

And the tumor weight ([9]; measured after tumor resection)?
The tumor weight was 488.333 mg.

And the tumor volume ([9]; measured at 40 days after drug administration)?
Its tumor volume is 813.356 mm^3.
